Patent US20120070392A1, “COMPOSITION FOR INHIBITING ERYTHEMA CAUSED BY ULTRAVIOLET RADIATION CONTAINING A DIPEPTIDE AS ACTIVE INGREDIENT” (priority 2009, published 2012)
Read-outs that look alike come from different tables or passages of the source.

Tested on: PGE2 production
Assay: Inhibition of UVB-induced PGE2 production in cultured human keratinocytes (PGE2 assay kit, calibrated with MTT absorbance)
Assay type: cell-based
Protocol: Human keratinocytes were seeded at a density of 1×10^5 cells/well to 6-well plates containing 2 mL of KGM(keratinocyte growth medium, Clonetics, San Diego, Calif., USA) per well and cultured overnight. Then, the medium was replaced with KBM(keratinocyte basal medium) supplemented with 0.1% BSA(bovine serum albumin) and the cells were cultured for an additional 24 hours. Subsequently, the cells were pre-treated for an additional 24 hours with 2 mL of the same medium containing 10 μg/ml of each of the dipeptides listed in Table 1. […] The pre-treated medium was transferred to new 24 well plates and 1 mL of DPBS(Dulbecco's phosphate buffered saline) was added to the cells in each well. During UV irradiation, the transferred medium was stored in a cell incubator. […] At this time, the control was covered with aluminum foil. After the removal of DPBS, the transferred medium was returned to each well. The cells were further cultured for 24 hours, after which 1 mL of the medium was transferred to microcentrifuge tubes. […] The supernatants were then removed and the formazan crystals were solubilized in 1 ml of DMSO(dimethylsulfoxide). One hundred μL of the solution was transferred to each well of 96-well plates and an optical density was determined at 540 nm using an ELISA(enzyme-linked immunosorbent assay) reader. […] The concentration of PGE2 was determined using a PGE2 Assay Kit(KGE004, R&D Systems, Inc., Minneapolis, Minn., USA) according to the manufacturer's instruction. […] After removal of the reaction, the wells were washed five times with 400 μL of wash buffer. To each well was added 200 μL of a substrate solution, followed by incubation for 20 30 min. The reaction was terminated with 50 μL of a stop solution per well before determining absorbance at 450 nm on an ELISA reader. The PGE2 concentration of each sample was calculated from the standard graph and calibrated with the absorbance obtained in the MTT assay to determine their inhibitory activity against PGE2 production.

[1] = 10 μg/ml dipeptide, 24 h pre-treatment, human keratinocytes, UVB 100 mJ/cm^2, medium assayed 24 h after irradiation, 0% or lower expressed as zero, 10% or more regarded as effective
[2] = 10 μg/ml dipeptide, 24 h pre-treatment, human keratinocytes, UVB 100 mJ/cm^2, medium assayed 24 h after irradiation, […], 10% or more regarded as effective

| Substance | % Inhibition against PGE2 Production | % Inhibition against PGE2 Production [2] | further results |
| --- | --- | --- | --- |
| histidine-leucine [HL] | 36.3% |  |  |
| histidine-lysine [HK] | 43.8% |  |  |
| histidine-phenylalanine [HF] |  |  | % Inhibition against PGE2 Production [1]: 43.2% |
| histidine-proline [HP] | 26.3% |  |  |
| histidine-serine [HS] | 53.2% |  |  |
| histidine-tryptophan [HW] |  | 21.6% |  |
| histidine-tyrosine [HY] | 77.9% |  |  |
| isoleucine-alanine [IA] |  |  | % Inhibition against PGE2 Production [1]: 38.6% |
| isoleucine-aspartic acid |  | 64.6% |  |
| isoleucine-glutamine [IQ] |  | 72.0% |  |
| isoleucine-histidine [IH] | 27.1% |  |  |
| isoleucine-lysine [IK] |  | 71.3% |  |
| isoleucine-methionine [IM] | 57.1% |  |  |
| isoleucine-proline [IP] | 59.5% |  |  |
| isoleucine-serine |  | 66.0% |  |
| isoleucine-threonine [IT] |  | 18.9% |  |
| isoleucine-tyrosine [IY] | 68.6% |  |  |
| isoleucine-valine [IV] |  | 70.9% |  |
| leucine-alanine |  |  | % Inhibition against PGE2 Production [1]: 47.2% |
| leucine-arginine [LR] |  | 52.0% |  |
| leucine-asparagine [LN] |  | 78.8% |  |
| leucine-cysteine [LC] |  | 33.3% |  |
| leucine-glutamic acid |  | 92.8% |  |

| Substance | % Inhibition against PGE2 Production | % Inhibition against PGE2 Production [2] | further results |
| --- | --- | --- | --- |
| leucine-histidine [LH] | 81.7% |  |  |
| leucine-lysine [LK] |  | 82.8% |  |
| leucine-phenylalanine [LF] |  | 90.2% |  |
| leucine-threonine [LT] |  | 53.4% |  |
| leucine-valine [LV] |  | 79.9% |  |
| lysine-aspartic acid [KD] |  | 90.3% |  |
| lysine-cysteine [KC] |  | 20.2% |  |
| lysine-methionine [KM] | 84.0% |  |  |
| lysine-threonine [KT] |  | 77.8% |  |
| lysine-tryptophan [KW] |  | 76.9% |  |
| lysine-tyrosine [KY] | 72.6% |  |  |
| lysine-valine [KV] |  | 71.6% |  |
| methionine-arginine [MR] | 36.5% |  |  |
| methionine-aspartic acid [MD] | 64.8% |  |  |
| methionine-glutamine [MQ] | 87.5% |  |  |
| methionine-threonine [MT] | 71.2% |  |  |
| methionine-tryptophan [MW] | 76.4% |  |  |
| methionine-tyrosine [MY] | 91.7% |  |  |
| phenylalanine-alanine [FA] |  |  | % Inhibition against PGE2 Production [1]: 48.8% |
| phenylalanine-arginine [FR] |  | 92.9% |  |
| phenylalanine-asparagine [FN] |  | 81.4% |  |
| phenylalanine-aspartic acid [FD] |  | 13.7% |  |
| phenylalanine-histidine [FH] |  |  | % Inhibition against PGE2 Production [1]: 39.2% |

| Substance | % Inhibition against PGE2 Production | % Inhibition against PGE2 Production [2] | further results |
| --- | --- | --- | --- |
| phenylalanine-isoleucine [FI] |  | 45.8% |  |
| phenylalanine-leucine [FL] |  | 29.2% |  |
| phenylalanine-lysine [FK] |  | 73.3% |  |
| phenylalanine-methionine [FM] |  |  | % Inhibition against PGE2 Production [1]: 67.5% |
| phenylalanine-phenylalanine [FF] |  |  | % Inhibition against PGE2 Production [1]: 70.5% |
| phenylalanine-tryptophan [FW] |  | 92.9% |  |
| phenylalanine-tyrosine [FY] | 88.0% |  |  |
| proline-alanine [PA] |  |  | % Inhibition against PGE2 Production [1]: 76.8% |
| proline-arginine | 76.4% |  |  |
| proline-asparagine [PN] | 32.7% |  |  |
| proline-aspartic acid [PD] | 84.3% |  |  |
| proline-glutamine [PQ] | 78.1% |  |  |
| proline-histidine [PH] | 74.7% |  |  |
| proline-isoleucine [PI] | 87.2% |  |  |
| proline-lysine [PK] | 96.3% |  |  |
| proline-phenylalanine [PF] | 32.8% |  |  |
| proline-serine [PS] | 71.3% |  |  |
| proline-threonine [PT] | 21.7% |  |  |
| proline-tryptophan [PW] | 85.5% |  |  |
| proline-tyrosine [PY] | 24.8% |  |  |
| serine-alanine [SA] |  |  | % Inhibition against PGE2 Production [1]: 51.0% |
| serine-arginine [SR] |  | 52.9% |  |
| serine-asparagine [SN] | 49.9% |  |  |

| Substance | % Inhibition against PGE2 Production | % Inhibition against PGE2 Production [2] | further results |
| --- | --- | --- | --- |
| serine-aspartic acid [SD] |  | 58.4% |  |
| serine-cysteine [SC] |  | 77.7% |  |
| serine-glutamic acid |  | 44.0% |  |
| serine-glutamine [SQ] |  | 58.8% |  |
| serine-histidine [SH] | 51.5% |  |  |
| serine-isoleucine [SI] |  | 50.3% |  |
| serine-leucine [SL] |  | 81.6% |  |
| serine-lysine [SK] |  | 44.9% |  |
| serine-methionine [SM] | 75.1% |  |  |
| serine-proline [SP] | 94.7% |  |  |
| serine-serine [SS] |  | 93.8% |  |
| serine-threonine [ST] |  | 79.5% |  |
| serine-tyrosine [SY] | 91.5% |  |  |
| serine-valine [SV] | 31.2% |  |  |
| threonine-arginine [TR] |  | 53.0% |  |
| threonine-aspartic acid [TD] |  | 77.6% |  |
| threonine-glutamic acid [TE] |  | 82.5% |  |
| threonine-glutamine [TQ] |  | 51.2% |  |
| threonine-isoleucine [TI] |  | 36.3% |  |
| threonine-lysine [TK] |  | 39.0% |  |
| threonine-methionine [TM] | 67.9% |  |  |
| threonine-phenylalanine [TF] |  | 77.3% |  |
| threonine-proline [TP] | 65.7% |  |  |

| Substance | % Inhibition against PGE2 Production | % Inhibition against PGE2 Production [2] | further results |
| --- | --- | --- | --- |
| threonine-serine [TS] |  | 55.7% |  |
| threonine-tryptophan [TW] |  | 54.8% |  |
| threonine-valine [TV] | 43.9% |  |  |
| tryptophan-alanine [WA] |  |  | % Inhibition against PGE2 Production [1]: 88.5% |
| tryptophan-arginine [WR] |  | 83.7% |  |
| tryptophan-asparagine [WN] |  | 33.1% |  |
| tryptophan-aspartic acid [WD] |  | 85.9% |  |
| tryptophan-cysteine [WC] |  | 18.3% |  |
| tryptophan-glutamic acid [WE] |  | 79.9% |  |
| tryptophan-glutamine [WQ] |  | 88.7% |  |
| tryptophan-histidine [WH] |  | 96.1% |  |
| tryptophan-leucine [WL] |  | 90.2% |  |
| tryptophan-lysine [WK] |  | 78.3% |  |
| tryptophan-methionine [WM] | 50.6% |  |  |
| tryptophan-phenylalanine [WF] |  | 81.7% |  |
| tryptophan-proline [WP] | 68.3% |  |  |
| tryptophan-serine [WS] |  | 89.0% |  |
| tryptophan-tryptophan [WW] |  | 34.8% |  |
| tryptophan-tyrosine [WY] |  | 55.6% |  |
| tryptophan-valine [WV] |  | 79.6% |  |
| tyrosine-alanine [YA] |  |  | % Inhibition against PGE2 Production [1]: 80.2% |
| tyrosine-arginine | 83.7% |  |  |
